Results taken from patent publication US6552066B1, “Protein tyrosine kinase inhibitors for treating osteoarthritis” (priority 1995, dated 2003).

Test system: IL-1-stimulated release of radiolabelled proteoglycan from bovine cartilage explants
Assay: Bovine cartilage explant assay with rhIL-1α and plasminogen (35S-GAG release)
Type: cell-based
Conditions: Bos taurus, rhIL-1α 5 ng/mL, plasminogen 0.4 μM
Text: A tissue culture assay was used to measure the ability of the compounds of the present invention to slow the degradation of the extracellular matrix by metalloproteinases. This assay measured the amount of ^35S-glycosaminoglycan (^35S-GAG) released from labeled bovine cartilage explants.
Knee joints from a 1 to 3 week old calf were obtained immediately after sacrifice from the Abattoir and then transported on ice. The intact joints were washed well with tap water and soaked in 50% (v/v) Povidine iodine solution, obtained from Burre National, Inc., Baltimore, Md. All subsequent steps were performed in a laminar flow tissue culture hood using standard sterile technique. The joint was immobilized in a shank holder and the joint capsule was cut open to expose the articular cartilage. […]
Individual disks obtained were transferred to a tissue culture flask containing about 100 mL fresh media. […] When ready to label, the old media was replaced with 50 mL fresh media containing about 1.2 mCi ^35S-Sodium Sulfate. […]
The TC plates were then placed in the incubator and cultured for 3-4 days (initial incubation with rhIL-1α alpha takes at least 3 days to stimulate endogenous metalloproteinases). A 50 μL aliquot of media from each TC plate was saved and counted. […]

Compound: CO[C@H]1[C@@H](OC)C[C@H](C)[C@@H](OC)C2=CC(=O)C=C(NC(=O)/C(C)=C/C=C\[C@H](OC)[C@@H](OC(N)=O)/C(C)=C/[C@@H]1C)C2=O [Herbimycin A]
- inhibition at 2 µM: ~70%
